Assay results published in PubChem BioAssay (NCI).
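Each compound was tested at five concentrations against cells in 96-well plates for 48 hours. GI50 = concentration required for 50% inhibition of growth. At the TGI there is no net growth.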

Assays:
Assay in all cases: inhibition of tumour cell growth, NCI panel, 48 h
SNB-75 CNS = system: SNB-75 CNS
SK-MEL-28 melanoma = system: SK-MEL-28 melanoma
SF-539 CNS = system: SF-539 CNS
K-562 leukemia = system: K-562 leukemia
BT-549 breast = system: BT-549 breast
NCI-H522 lung = system: NCI-H522 lung
A549 NSCLC = system: A549 NSCLC
UACC-257 melanoma = system: UACC-257 melanoma
DU-145 prostate = system: DU-145 prostate
MDA-MB-435 = system: MDA-MB-435

| SMILES | TGI (SNB-75 CNS) [µM] | TGI (SK-MEL-28 melanoma) [µM] | TGI (SF-539 CNS) [µM] | TGI (K-562 leukemia) [µM] | TGI (BT-549 breast) [µM] | TGI (NCI-H522 lung) [µM] | TGI (A549 NSCLC) [µM] | TGI (UACC-257 melanoma) [µM] | TGI (DU-145 prostate) [µM] | TGI (MDA-MB-435) [µM] | GI50 (SNB-75 CNS) [µM] | GI50 (SK-MEL-28 melanoma) [µM] | GI50 (SF-539 CNS) [µM] | GI50 (K-562 leukemia) [µM] | GI50 (BT-549 breast) [µM] | GI50 (NCI-H522 lung) [µM] | GI50 (A549 NSCLC) [µM] | GI50 (UACC-257 melanoma) [µM] | GI50 (DU-145 prostate) [µM] | GI50 (MDA-MB-435) [µM] |
| --- | --- | --- | --- | --- | --- | --- | --- | --- | --- | --- | --- | --- | --- | --- | --- | --- | --- | --- | --- | --- |
| O=C1/C(=C/c2ccccc2)CN(C(=O)CCN2CCCC2)C/C1=C\c1ccccc1 | 13.5 | 3.38 | 5.4 | 4.69 | 3.77 | 2.8 | 14.6 | 6.65 | 18.1 | 3.24 | – | – | – | – | – | – | – | – | – | – |
| C=C1C(=O)OC2CC(C)C3CC(O)OC(OCC)C3(C)CC12 (centres undefined) | 50.8 | 27.5 | 35.4 | > 57.4 | > 58.4 | 18.8 | > 96.6 | 31.5 | > 100 | 37.6 | – | – | – | – | – | – | – | – | – | – |
| COc1cc2c(cc1OC)C(=O)/C(=C/c1cc(-c3ccc4c(c3)OCO4)n[nH]1)C2 | 3.02 | 3.4 | 2.57 | > 100 | 3.04 | 0.871 | 5.45 | 3.13 | 2.86 | 3.27 | 1.65 | 1.89 | 1.27 | 1.59 | 1.62 | 0.258 | 1.96 | 1.71 | 1.45 | 1.73 |
| Cc1nc(Nc2ccccn2)sc1C(=O)/C=C/c1ccc(Cl)cc1 | 24.7 | > 100 | 0.812 | > 100 | 8.64 | – | > 100 | > 100 | > 71.5 | 0.515 | 0.296 | 2.19 | 0.252 | 0.395 | 0.344 | 0.241 | 0.426 | 22.8 | 0.383 | 0.201 |
| O=C([O][Sn]([O]C(=O)c1ccccn1)([c]1ccccc1)[c]1ccccc1)c1ccccn1 | 13 | 13.3 | 19.7 | 6.37 | 20.7 | 0.291 | 31.5 | 3.61 | 4.19 | 6.04 | 2.54 | 3.4 | 6.65 | 0.405 | 8.25 | 0.14 | 17.6 | 1.62 | 1.93 | 2.29 |
| O=c1/c(=C\c2ccc(F)cc2)sc2n1C(c1ccc(F)cc1)C1=C(N=2)c2ccc3ccccc3c2OCC1 (centres undefined) | > 100 | > 100 | > 100 | > 100 | > 100 | > 100 | > 100 | > 100 | > 100 | > 100 | > 100 | > 100 | > 100 | > 29.5 | > 64.5 | > 100 | > 100 | > 100 | > 100 | > 100 |
| Cc1c2c(c(C)c3c4c(oc13)CCCC4)C=NCC2 | 32.4 | 35.7 | 28.9 | 37.4 | 33.7 | 31.3 | 32.4 | 29.5 | 28.5 | 29.3 | – | – | – | – | – | – | – | – | – | – |
| O=C(Oc1ccc(CO[N+](=O)[O-])cc1)c1ccccc1 | 0.333 | 0.332 | 0.287 | 0.325 | 0.27 | 0.318 | 2.49 | 0.532 | 0.818 | 0.307 | 0.158 | 0.171 | 0.153 | 0.0708 | 0.139 | 0.158 | 1.23 | 0.207 | 0.289 | 0.157 |
| CCN(c1cc(-c2ccc(CN3CCOCC3)cc2)cc(C(=O)NCc2c(C)cc(C)[nH]c2=O)c1C)C1CCOCC1 | > 91.9 | 47.7 | 33.2 | > 100 | 37.4 | > 58.5 | > 100 | 33.5 | > 100 | 34.6 | 16.7 | 20.5 | 16.3 | 32.6 | 17.3 | 23.6 | 33.5 | 16.2 | 40.6 | 17.4 |
| CN(C)c1nc2ccccc2c2c1c1c(n2Cc2ccccc2)-c2ccccc2C1=O | > 100 | > 100 | > 100 | > 100 | > 100 | > 100 | > 100 | > 100 | > 100 | > 100 | 54.2 | > 100 | > 100 | > 100 | > 100 | > 100 | > 100 | > 100 | > 100 | > 100 |
| c1ccc2c(c1)SCCCSCCSCCCS2 | > 100 | > 100 | > 100 | > 100 | > 100 | > 100 | > 100 | > 100 | > 100 | > 100 | – | – | – | – | – | – | – | – | – | – |
| Cc1nc2ccc(NC(=O)CCNC(=O)CCCc3ccc(CC(C(=O)O)C(=O)O)cc3)cc2s1 | > 100 | > 100 | > 100 | > 100 | > 100 | > 100 | > 100 | > 100 | > 100 | > 100 | > 100 | > 100 | > 100 | > 100 | > 100 | > 100 | > 100 | > 100 | > 100 | > 100 |
| Cn1cc(-c2ccc3nnc(Sc4ccc5ncccc5c4)n3n2)cn1 | > 100 | > 100 | > 100 | > 100 | > 100 | > 100 | > 100 | > 100 | > 100 | > 100 | 26.1 | > 100 | > 93.4 | 38.4 | 48.7 | > 100 | > 86 | > 100 | 73.3 | > 100 |
| Cc1nc(Nc2cccnc2)sc1C(=O)/C=C/c1ccc(Cl)cc1 | 14.7 | 14.7 | 5.26 | > 100 | 7.22 | 5.33 | > 100 | > 100 | 19.8 | 6.46 | 2.82 | 3.04 | 2.03 | 2.62 | 2.2 | 2.14 | 3.32 | 9.22 | 3.57 | 2.26 |
